Reference: US20150011423A1, “MEANS AND METHODS FOR ASSESSING KIDNEY TOXICITY” (BASF SE, priority 2011, published 2015)
Marks after values point to notes of the source that are not given here.

Test system: rats
Assay: 28-day repeated dose study in rats with mass spectrometry-based plasma metabolite profiling (GC-MS, LC-MS, SPE-LC-MS); treatment ratios versus control
Conditions: plasma; for Cysteine, treatment ratio versus control / Glycerol, polar fraction, treatment ratio versus control / Hippuric acid, treatment ratio versus control / Indole-3-acetic acid, treatment ratio versus control / Spermidine, treatment ratio versus control / Sucrose, treatment ratio versus control: Table 3b tubular defect
[1] = female rats, day 14, high dose, Table 3a tubular defect
[2] = female rats, day 28, high dose, Table 3a tubular defect
[3] = male rats, day 14, high dose, Table 3c tubular defect
[4] = male rats, day 14, high dose, Table 3d tubular defect
[5] = male rats, day 28, high dose, Table 3c tubular defect
[6] = male rats, day 28, high dose, Table 3d tubular defect

Q: `N.N.O=C([O-])C1(C(=O)[O-])CCC1.[Pt+2]` [Carboplatin] was tested. Which “Creatine, treatment ratio versus control” value [1] did it give?
A: 1.22 *

Q: What about the “Creatinine, treatment ratio versus control” value [1] of the same molecule?
A: 0.85

Q: And the “Galactose, lipid fraction, treatment ratio versus control” value [1]?
A: 1.17 *

Q: And the “Glucuronic acid, treatment ratio versus control” value [1]?
A: 1.36

Q: And the “Glycerol-3-phosphate, polar fraction, treatment ratio versus control” value [1]?
A: 1.66 *

Q: What about the “Glycine, treatment ratio versus control” value [1] of the same molecule?
A: 1.08

Q: And the “Histidine, treatment ratio versus control” value [1]?
A: 1.03

Q: What about the “Isoleucine, treatment ratio versus control” value [1] of the same molecule?
A: 1.09 *

Q: And the “Leucine, treatment ratio versus control” value [1]?
A: 1.13 *

Q: What about the “Lysophosphatidylcholine (C18:1), treatment ratio versus control” value [1] of the same molecule?
A: 0.98

Q: What about the “Phosphatidylcholine No 02, treatment ratio versus control” value [1] of the same molecule?
A: 1.07 *

Q: What about the “TAG No 05, treatment ratio versus control” value [1] of the same molecule?
A: 1.9 *

Q: And the “Threonic acid, treatment ratio versus control” value [1]?
A: 1.14

Q: What about the “Threonine, treatment ratio versus control” value [1] of the same molecule?
A: 0.99

Q: What about the “Uracil, treatment ratio versus control” value [1] of the same molecule?
A: 1.07

Q: What about the “Valine, treatment ratio versus control” value [1] of the same molecule?
A: 1.07 *

Q: And the “Xylitol, treatment ratio versus control” value [1]?
A: 0.83

Q: And the “Cysteine, treatment ratio versus control” value (female rats, day 14, high dose)?
A: 0.83 *

Q: What about the “Glycerol, polar fraction, treatment ratio versus control” value (female rats, day 14, high dose) of the same molecule?
A: 0.88^

Q: What about the “Hippuric acid, treatment ratio versus control” value (female rats, day 14, high dose) of the same molecule?
A: 0.59^

Q: And the “Indole-3-acetic acid, treatment ratio versus control” value (female rats, day 14, high dose)?
A: 0.38 *

Q: And the “Spermidine, treatment ratio versus control” value (female rats, day 14, high dose)?
A: 0.95^

Q: What about the “Sucrose, treatment ratio versus control” value (female rats, day 14, high dose) of the same molecule?
A: 0.67 *

Q: What about the “Creatine, treatment ratio versus control” value [2] of the same molecule?
A: 1.41 *

Q: And the “Creatinine, treatment ratio versus control” value [2]?
A: 1.59 *

Q: And the “Galactose, lipid fraction, treatment ratio versus control” value [2]?
A: 0.84^

Q: What about the “Glucuronic acid, treatment ratio versus control” value [2] of the same molecule?
A: 1.24 *

Q: What about the “Glycerol-3-phosphate, polar fraction, treatment ratio versus control” value [2] of the same molecule?
A: 2.2 *

Q: And the “Glycine, treatment ratio versus control” value [2]?
A: 1.17 *

Q: And the “Histidine, treatment ratio versus control” value [2]?
A: 1.3 *

Q: What about the “Isoleucine, treatment ratio versus control” value [2] of the same molecule?
A: 1.35 *

Q: What about the “Leucine, treatment ratio versus control” value [2] of the same molecule?
A: 1.38 *

Q: And the “Lysophosphatidylcholine (C18:1), treatment ratio versus control” value [2]?
A: 1.12 *

Q: What about the “Phosphatidylcholine No 02, treatment ratio versus control” value [2] of the same molecule?
A: 0.97^

Q: And the “TAG No 05, treatment ratio versus control” value [2]?
A: 1.27 *

Q: What about the “Threonic acid, treatment ratio versus control” value [2] of the same molecule?
A: 1.23 *

Q: What about the “Threonine, treatment ratio versus control” value [2] of the same molecule?
A: 1.24 *

Q: What about the “Uracil, treatment ratio versus control” value [2] of the same molecule?
A: 1.37 *

Q: What about the “Valine, treatment ratio versus control” value [2] of the same molecule?
A: 1.25 *

Q: And the “Xylitol, treatment ratio versus control” value [2]?
A: 1.56 *

Q: What about the “Cysteine, treatment ratio versus control” value (female rats, day 28, high dose) of the same molecule?
A: 0.67

Q: What about the “Glycerol, polar fraction, treatment ratio versus control” value (female rats, day 28, high dose) of the same molecule?
A: 0.78 *

Q: What about the “Hippuric acid, treatment ratio versus control” value (female rats, day 28, high dose) of the same molecule?
A: 0.3 *

Q: And the “Indole-3-acetic acid, treatment ratio versus control” value (female rats, day 28, high dose)?
A: 0.65

Q: And the “Spermidine, treatment ratio versus control” value (female rats, day 28, high dose)?
A: 0.69 *

Q: What about the “Sucrose, treatment ratio versus control” value (female rats, day 28, high dose) of the same molecule?
A: 0.61

Q: What about the “Allantoin, treatment ratio versus control” value [3] of the same molecule?
A: 1.4

Q: What about the “Creatine, treatment ratio versus control” value [3] of the same molecule?
A: 1.32 *

Q: What about the “Glycerol-3-phosphate, polar fraction, treatment ratio versus control” value [3] of the same molecule?
A: 1.59 *

Q: And the “Histidine, treatment ratio versus control” value [3]?
A: 1.02

Q: And the “Kynurenic acid, treatment ratio versus control” value [3]?
A: 1.21 *

Q: What about the “Nervonic acid (C24:cis[15]1), treatment ratio versus control” value [3] of the same molecule?
A: 1.02

Q: What about the “Pantothenic acid, treatment ratio versus control” value [3] of the same molecule?
A: 1.17

Q: What about the “Pseudouridine, treatment ratio versus control” value [3] of the same molecule?
A: 1.33 *

Q: What about the “Taurine, treatment ratio versus control” value [3] of the same molecule?
A: 1.18 *

Q: And the “Urea, treatment ratio versus control” value [3]?
A: 1.47 *

Q: And the “16-Methylheptadecanoic acid, treatment ratio versus control” value [4]?
A: 0.74 *

Q: What about the “Linolenic acid (C18:cis[9,12,15]3), treatment ratio versus control” value [4] of the same molecule?
A: 0.75

Q: What about the “Phosphatidylcholine No 02, treatment ratio versus control” value [4] of the same molecule?
A: 0.87 *

Q: What about the “Phosphatidylcholine No 04, treatment ratio versus control” value [4] of the same molecule?
A: 0.74 *

Q: And the “TAG (C18:1, C18:2), treatment ratio versus control” value [4]?
A: 0.79 *

Q: What about the “Allantoin, treatment ratio versus control” value [5] of the same molecule?
A: 1.24 *

Q: What about the “Creatine, treatment ratio versus control” value [5] of the same molecule?
A: 1.42 *

Q: And the “Glycerol-3-phosphate, polar fraction, treatment ratio versus control” value [5]?
A: 1.61 *

Q: What about the “Histidine, treatment ratio versus control” value [5] of the same molecule?
A: 1.22 *

Q: And the “Kynurenic acid, treatment ratio versus control” value [5]?
A: 1.7

Q: What about the “Nervonic acid (C24:cis[15]1), treatment ratio versus control” value [5] of the same molecule?
A: 1.51 *

Q: And the “Pantothenic acid, treatment ratio versus control” value [5]?
A: 1.47 *

Q: What about the “Pseudouridine, treatment ratio versus control” value [5] of the same molecule?
A: 1.11 *

Q: And the “Taurine, treatment ratio versus control” value [5]?
A: 1.54 *

Q: And the “Urea, treatment ratio versus control” value [5]?
A: 1.08

Q: And the “16-Methylheptadecanoic acid, treatment ratio versus control” value [6]?
A: 0.51 *

Q: What about the “Linolenic acid (C18:cis[9,12,15]3), treatment ratio versus control” value [6] of the same molecule?
A: 0.7 *

Q: And the “Phosphatidylcholine No 02, treatment ratio versus control” value [6]?
A: 0.91 *

Q: And the “Phosphatidylcholine No 04, treatment ratio versus control” value [6]?
A: 0.78

Q: And the “TAG (C18:1, C18:2), treatment ratio versus control” value [6]?
A: 0.62 *
